Where two headings read alike, the source gives them in different places.
How the values were obtained:
[1] = molecular target: T1, CCK receptor (pancreas) (Rattus norvegicus, UniProt P30551); assay: biochemical; assay type: binding; conditions: rat pancreas membranes; for IC50: 50 pM 125I-CCK-8, 25°C 2 hours
T1 construct: The whole pancreas was dissected free of fat tissue and was homogenized; from tissue; host or cells: rat pancreas membrane homogenate
T1 sequence (P30551 1-444): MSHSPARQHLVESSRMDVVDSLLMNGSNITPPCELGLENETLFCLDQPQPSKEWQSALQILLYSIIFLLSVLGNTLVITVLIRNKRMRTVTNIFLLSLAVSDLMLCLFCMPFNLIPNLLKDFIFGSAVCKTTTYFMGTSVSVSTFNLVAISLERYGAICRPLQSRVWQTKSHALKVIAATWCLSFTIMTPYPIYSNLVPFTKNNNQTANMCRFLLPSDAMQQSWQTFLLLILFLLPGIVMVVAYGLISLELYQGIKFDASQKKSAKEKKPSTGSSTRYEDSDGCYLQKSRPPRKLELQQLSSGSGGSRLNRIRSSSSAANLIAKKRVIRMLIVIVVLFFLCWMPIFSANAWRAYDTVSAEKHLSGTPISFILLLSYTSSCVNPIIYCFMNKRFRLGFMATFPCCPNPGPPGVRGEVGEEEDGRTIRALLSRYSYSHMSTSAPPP
Procedure: CCK-8 sulphated was radiolabelled with ¹²⁵I-Bolton Hunter reagent (2000 Ci/mmole). Receptor binding was performed according to Chang and Lotti (Proc. Natl. Acad. Sci. 83, 4923-4926, 1986) with minor modifications.
Male Sprague-Dawley rats (150-200g) were sacrificed by decapitation. The whole pancreas was dissected free of fat tissue and was homogenized in 25 volumes of ice-cold 10 mM N-2-hydroxyethyl-piperazine-N′-2-ethane sulphonic acid (HEPES) buffer with 0.1% soya bean trypsin inhibitor (pH 7.4 at 25°C) with a Kinematica Polytron. The homogenates were centrifuged at 47,800 g for 10 min. Pellets were resuspended in 10 volumes of binding assay buffer (20mM (HEPES)), 1mM ethylene glycol-bis-(β-aminoethylether-N,N′-tetraacetic acid) (EGTA), 5mM MgCl₂, 150 mM NaCl, bacitracin 0.25 mg/ml, soya bean trypsin inhibitor 0.1 mg/ml, and bovine serum albumin 2 mg/ml pH 6.5 at 25°C) using a Teflon (trademark) homogenizer, 15 strokes at 500 rpm. The homogenate was further diluted in binding assay buffer to give a final concentration of 0.5 mg original wet weight/1 ml buffer. […] All assays were run in duplicate. The reaction mixtures were incubated at 25°C for 2 hours and the reaction terminated by rapid filtration (Brandell 24 well cell harvester) over Whatman GF/C filters, washing 3 x 4 mls with ice-cold 100 Mm NaCl. The radioactivity on the filters was counted with a LKB gamma counter.
(§1) Drug displacement studies were performed with at least 10 concentrations of compounds of Formula I and the IC₅₀ values were determined by regression analysis IC₅₀ refers to the concentration of the compound required to inhibit 50% of specific binding of ¹²⁵I-CCK-8.

[2] = molecular target: T2, CCK receptor (brain, cortex) (Cavia porcellus, UniProt H0VZC5); assay: biochemical; assay type: binding, guinea pig
T2 construct: the cortex was removed and homogenized in 25 mL ice-cold 0.32 M sucrose; from tissue; host or cells: guinea pig brain cortex P2 membrane pellet
T2 sequence (H0VZC5 1-426): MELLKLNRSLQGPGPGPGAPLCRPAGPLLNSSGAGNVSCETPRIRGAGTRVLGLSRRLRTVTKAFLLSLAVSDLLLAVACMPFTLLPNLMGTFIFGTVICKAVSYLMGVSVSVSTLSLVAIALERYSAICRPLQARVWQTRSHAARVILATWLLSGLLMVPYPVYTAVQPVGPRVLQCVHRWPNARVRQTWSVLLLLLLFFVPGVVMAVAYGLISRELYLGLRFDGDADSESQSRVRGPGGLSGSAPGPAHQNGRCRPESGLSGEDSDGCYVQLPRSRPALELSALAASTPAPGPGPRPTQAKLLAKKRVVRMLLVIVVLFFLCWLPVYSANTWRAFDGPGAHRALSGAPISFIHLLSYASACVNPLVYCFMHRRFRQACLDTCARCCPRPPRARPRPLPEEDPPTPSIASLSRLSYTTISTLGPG
Procedure: CCK-8 sulphated was radiolabelled and the binding was performed according to the description for the pancreas method with minor modifications.
Male Hartley guinea pigs (300-500g) were sacrificed by decapitation and the cortex was removed and homogenized in 25 mL ice-cold 0.32 M sucrose. The homogenates were centrifuged at 1000 g for 10 minutes and the resulting supernatant was recentrifuged at 20,000 g for 20 minutes. The P₂ pellet was resuspended in binding assay buffer (20mM HEPES, 5 mM MgCl₂, 0.25 mg/ml bacitracin, 1 mM EGTA pH 6.5 at 25°C), using a Teflon (trademark) homogenizer (5 strokes at 500 rpm) to give a final concentration of 10 mg original wet weight/1.2 ml buffer. […] All assays were run in duplicate. The reaction mixtures were incubated at 25°C for 2 hours and then the reaction was terminated by rapid filtration (Brandell 24 well cell harvester) on Whatman GF/C filters with 3 x 5 ml washes of cold 100 mM NaCl. The radioactivity on the filters was counted with a LKB gamma counter.
as §1

[3] = guinea pig cortex membranes, 50 pM 125I-CCK-8, 25°C 2 hours, read-out: IC50 ^125I-CCK Brain

inhibition at 3 µM ([1]; at 3μM, read-out: inhibition of ^125I-CCK binding, Pancreas) [%]	SMILES	IC50 [1] [µM]	IC50 [2, 3] [µM]	IC50 [2] [µM]
	CN1C(=O)C(NC(=O)Nc2cccc(S(=O)(=O)NC(=O)c3ccccc3)c2)N=C(C2CCCCC2)c2ccccc21 (racemic) [Example 13, N-(3(R,S)-5-Cyclohexyl-2,3-dihydro-1-methyl-2-oxo-1H-1,4-benzodiazepin-3-yl] N′-[3-(phenylcarbonylaminosulphonyl)phenyl] urea]	0.738		
	CN1C(=O)C(NC(=O)Nc2cccc(S(=O)(=O)Nc3nncs3)c2)N=C(C2CCCCC2)c2ccccc21 (racemic) [Example 21, N-[3(R,S)-5-Cyclohexyl-2,3-dihydro-1-methyl-2-oxo-1H-1,4-benzodiazepin-3-yl] N′-[3-(1,3,4-thiadiazol-2-ylaminosulphonyl)phenyl]urea]	0.0097	0.0012	
	CN1C(=O)[C@@H](NC(=O)Nc2cccc(C(=O)NS(=O)(=O)c3ccccc3)c2)N=C(C2CCCCC2)c2ccccc21 [Example 35, N-[3(S)-5-Cyclohexyl-2,3-dihydro-1-methyl-2-oxo-1H-1,4-benzodiazepin-3-yl] N′-[3-(phenylsulphonylaminocarbonyl)phenyl] urea]	0.0102	0.0508	
	CC(C)S(=O)(=O)NC(=O)c1cccc(NC(=O)NC2N=C(C3CCCC3)c3ccccc3N(C)C2=O)c1 (racemic) [Example 38, N-(3(R,S)-5-Cyclopentyl-2,3-dihydro-1-methyl-2-oxo-1H-1,4-benzodiazepin-3-yl] N′-[3-(isopropylsulphonylaminocarbonyl)phenyl] urea]	0.3	0.0068	
	CN1C(=O)C(NC(=O)Nc2cccc(-c3nn[nH]n3)c2)N=C(C2CCCC2)c2ccccc21 (racemic) [Example 8, N-[3(R,S)-5-Cyclopentyl-2,3-dihydro-1-methyl-2-oxo-1H-1,4-benzodiazepin-3-yl] N′-[3-tetrazol-5-ylphenyl] urea]	0.056	0.0016	
	CCN1C(=O)C(NC(=O)Nc2cccc(-c3nn[nH]n3)c2)N=C(C2CCCC2)c2ccccc21 (racemic) [Example 5, N-[3(R,S)-5-Cyclopentyl-2,3-dihydro-1-ethyl-2-oxo-1H-1,4-benzodiazepin-3-yl] N′-[3-tetrazol-5-ylphenyl]urea]	0.14	0.00071	
	CN1C(=O)C(NC(=O)Nc2cccc(C(=O)NS(C)(=O)=O)c2)N=C(C2CCCCC2)c2ccccc21 (racemic) [Example 16, N-(3(R,S)-5-Cyclohexyl-2,3-dihydro-1-methyl-2-oxo-1H-1,4-benzodiazepin-3-yl] N′-[3-(methylsulphonylaminocarbonyl)phenyl] urea]	0.002		
	CCN1C(=O)C(NC(=O)Nc2cccc(C(=O)NS(C)(=O)=O)c2)N=C(C2CCCC2)c2ccccc21 (racemic) [Example 29, N-(3(R,S)-5-Cyclopentyl-2,3-dihydro-1-ethyl-2-oxo-1H-1,4-benzodiazepin-3-yl] N′-(3-(methylsulphonylaminocarbonyl)phenyl] urea]	0.022	0.0063	
	CN1C(=O)C(NC(=O)Nc2cccc(C(=O)NS(=O)(=O)c3ccccc3)c2)N=C(C2CCCCC2)c2ccccc21 (racemic) [Example 14, N-[3(R,S)-5-Cyclohexyl-2,3-dihydro-1-methyl-2-oxo-1H-1,4-benzodiazepin-3-yl] N′-[3-(phenylsulphonylaminocarbonyl)phenyl] urea]	0.0111	0.00058	
	CC(C)S(=O)(=O)NC(=O)c1cccc(NC(=O)NC2N=C(C3CCCCC3)c3ccccc3N(C)C2=O)c1 (single isomer, unassigned) [24 (Peak B)]	0.005		
	CN1C(=O)C(NC(=O)Nc2cccc(S(=O)(=O)Nc3nccs3)c2)N=C(C2CCCCC2)c2ccccc21 (racemic) [Example 26, N-[3(R,S)-5-Cyclohexyl-2,3-dihydro-1-methyl-2-oxo-1H-1,4-benzodiazepin-3-yl] N′-[3-(thiazol-2-ylaminosulphonyl)phenyl]urea]	0.06	0.0023	
~27	CC(C)CN1C(=O)C(NC(=O)Nc2cccc(-c3nn[nH]n3)c2)N=C(C2CCCCC2)c2ccccc21 (racemic) [Example 2, N-[3(R,S)-5-Cyclohexyl-2,3-dihydro-1-(2-methylpropyl)-2-oxo-1H-1,4-benzodiazepin-3-yl] N′-[3-tetrazol-5-ylphenyl] urea]		0.00042	
	CCCN1C(=O)C(NC(=O)Nc2cccc(C(=O)NS(C)(=O)=O)c2)N=C(C2CCCCC2)c2ccccc21 (racemic) [Example 25, N-[3(R,S)-5-Cyclohexyl-2,3-dihydro-1-propyl-2-oxo-1H-1,4-benzodiazepin-3-yl] N′-(3-(methylsulphonylaminocarbonyl)phenyl]urea]	0.22	0.0019	
	CC(C)CN1C(=O)C(NC(=O)Nc2cccc(C(=O)NS(C)(=O)=O)c2)N=C(C2CCCCC2)c2ccccc21 (racemic) [Example 19, N-(3(R,S)-5-Cyclohexyl-2,3-dihydro-1-(2-methylpropyl)-2-oxo-1H-1,4-benzodiazepin-3-yl] N′-[3-(methylsulphonylaminocarbonyl)phenyl] urea]	0.57	0.012	
	Cc1ccc(NC(=O)N[C@@H]2N=C(C3CCCCC3)c3ccccc3N(C)C2=O)cc1C(=O)NS(C)(=O)=O [Example 34, N-[3(R)-5-Cyclohexyl-2,3-dihydro-1-methyl-2-oxo-1H-1,4-benzodiazepin-3-yl] N′-[4-methyl-3-(methylsulphonylaminocarbonyl)phenyl] urea]	1.7	0.0023	
	CN1C(=O)C(NC(=O)Nc2cccc(C(=O)O)c2)N=C(C2CCCCC2)c2ccccc21 (racemic) [Example 10, N-[3(R,S)-5-Cyclohexyl-2,3-dihydro-1-methyl-2-oxo-1H-1,4-benzodiazepin-3-yl] N′-[3-carboxyphenyl] urea]	0.0031		0.0014
	Cc1ccccc1S(=O)(=O)NC(=O)c1cccc(NC(=O)N[C@@H]2N=C(C3CCCCC3)c3ccccc3N(C)C2=O)c1 [Example 33, N-[3(R)-5-Cyclohexyl-2,3-dihydro-1-methyl-2-oxo-1H-1,4-benzodiazepin-3-yl] N′-[3-(2-methylphenylsulphonylaminocarbonyl)phenyl] urea]	1.6		
	Cc1cccc(NC(=O)NC2N=C(C3CCCCC3)c3ccccc3N(C)C2=O)c1 (single isomer, unassigned) [7 (Peak B)]		0.1	
	CN1C(=O)C(NC(=O)Nc2cccc(C(=O)NS(=O)(=O)c3ccccc3)c2)N=C(C2CCCC2)c2ccccc21 (racemic) [Example 40, N-[3(R,S)-5-Cyclopentyl-2,3-dihydro-1-methyl-2-oxo-1H-1,4-benzodiazepin-3-yl] N′-[3-(phenylsulphonylaminocarbonyl)phenyl] urea]	0.31		
